Experimental data: patent US20240293412A1, “NAMPT ACTIVATORS FOR TREATING METABOLIC AND NEUROLOGICAL DISORDERS” (The Board of Trustees of the University of Illinois, priority 2021, published 2024)

What was measured:
THP-1 cells = assay: cells; settings: Homo sapiens, THP-1, 24 h; for Emax: read-out: Maximum activation (%)
NAMPT = NAMPT (Homo sapiens (Human), UniProt P43490); assay: NAMPT coupled enzyme activity assay; format: biochemical; settings: NAMPT activation, Table 2; for Emax: read-out: Maximum activation (%)
Chain of NAMPT (P43490 whole entry): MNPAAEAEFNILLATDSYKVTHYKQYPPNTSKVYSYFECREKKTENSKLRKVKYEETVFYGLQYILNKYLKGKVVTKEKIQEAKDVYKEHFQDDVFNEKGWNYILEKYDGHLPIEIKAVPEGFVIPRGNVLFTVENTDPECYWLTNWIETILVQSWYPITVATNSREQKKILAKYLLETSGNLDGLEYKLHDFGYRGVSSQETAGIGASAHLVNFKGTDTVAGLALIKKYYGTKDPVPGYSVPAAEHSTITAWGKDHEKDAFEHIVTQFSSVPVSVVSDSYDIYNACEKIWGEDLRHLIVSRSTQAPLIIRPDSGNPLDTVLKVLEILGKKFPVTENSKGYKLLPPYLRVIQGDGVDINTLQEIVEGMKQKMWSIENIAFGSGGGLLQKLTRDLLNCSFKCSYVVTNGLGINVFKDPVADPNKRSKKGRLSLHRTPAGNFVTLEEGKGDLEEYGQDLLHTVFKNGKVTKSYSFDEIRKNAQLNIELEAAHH

**Q.** For `CSc1ccc(CNC(=O)[C@H]2CCCN(c3ncnc4nn(-c5ccc(C)cc5)cc34)C2)cc1`, which EC50 (THP-1 cells) is on record?
**A.** 3.2 µM

**Q.** What about the Emax (THP-1 cells) of the same compound?
**A.** 202%

**Q.** Which EC50 (NAMPT) does the source give for `Cc1ccc(-n2cc3c(N4CCCC(C(=O)NCc5ccc(N(C)C)cc5)C4)ncnc3n2)cc1` (stereo not drawn) here?
**A.** 0.16 µM

**Q.** What about the Emax (NAMPT) of the same compound?
**A.** 186%

**Q.** Which EC50 (NAMPT) does the source give for `CSc1ccc(CNC(=O)C2CCN(c3ncnc4nn(-c5ccc(C)cc5)cc34)CC2)cc1` here?
**A.** 9.4 µM

**Q.** What about the Emax (NAMPT) of the same compound?
**A.** 240%

**Q.** How did the EC50 (THP-1 cells) turn out when `O=C(NCc1ccc2sccc2c1)[C@H]1CCCN(c2ncnc3nn(-c4ccc(C(F)(F)F)cc4)cc23)C1` was run?
**A.** 0.74 µM

**Q.** What about the Emax (THP-1 cells) of the same compound?
**A.** 150%

**Q.** With `Cc1ccc(-n2cc3c(N4CCCC(C(=O)NCc5cc[nH]n5)C4)ncnc3n2)cc1` (stereo not drawn) as the compound, how does the EC50 (NAMPT) read?
**A.** > 10 µM
